The text below walks through data of US11883422B2, “Glycan therapeutic compositions and related methods thereof” (DSM Nutritional Products, LLC, priority 2015, dated 2024).

The test system of the assay is colonic propulsion in morphine-treated mice. The assay can be described thus: Mouse model of opioid-induced constipation: colonic propulsion (bead expulsion) after morphine. In kind it is in vivo. As for the experimental part:
This study was conducted to analyze the effects of glycan therapeutics in a mouse model of opioid-induced constipation. In this model, normal mice are dosed with glycan or control for several days and then administered a dose of morphine sufficient to produce decreased gastrointestinal (GI) transit and colonic propulsion (Coates et al. 2006 Neurogastroenterol Motil 18:464-471). In humans, morphine and related opiate drugs are known to cause constipation. They act on neurons in the myenteric plexus as mu-opioid receptor agonists, leading to decreased GI motility and propulsion. The proportion of the US adult population who take opiates chronically (non-cancer patients), is roughly 4%. In an observational study of patients on opiates for chronic pain, 47% experienced constipation (Tuteja et al. […] Neurogastroenterol Motil 22: 424-430). There is evidence that chronic constipation can predispose individuals to benign GI neoplasms and colorectal cancer. […]
Several drug toxicities affecting GI motility (e.g. causing constipation or diarrhea) in cancer are also related to or associated with other immune imbalances and nutritional imbalances. […] Colonic propulsion was assessed as follows: thirty minutes post morphine dosing, a 3 mm glass bead was inserted at a depth of 2 cm into the distal colon through each mouse's anus. […]

Molecules are shown by their SMILES.

Take `C=CCN1CC[C@]23c4c5ccc(O)c4O[C@H]2C(=O)CC[C@@]3(O)[C@H]1C5` [naloxone]: under “1% in drinking water for 11 days (naloxone 30 minutes prior to morphine), morphine 3 mg/kg subcutaneously”, the “responders (reduction in expulsion of >25% of maximum expulsion time, 1350 seconds)” value was 6/8. Under “third analysis, responder versus non-responder animals, cutoff 1800 seconds”, the “effect in this mouse model of colonic propulsion” value was “reversing the effects of morphine”.
